Consider 49 compounds from patent publication US6225478A, “Iridoid derivatives and neovascularization inhibitors containing the same as active ingredient” (Tsumura & Co., priority 1999, dated 2001).

Usually inhibition stands for the relative decrease from the control value, in per cent.

The subject of assay [1] is human umbilical-vein endothelial cells (HUVEC). The assay is described as follows: Tube Formation Assay (TFA) Test, HUVEC in collagen gel. Type of assay: cell-based. As to conditions: Homo sapiens, HUVEC, Tables 75-83; 0.32 mM sample solution; method as for Compounds 1 through 60; read-out: TFA Inhibition rate (%). The method in brief: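 Inhibition rate (%) of tube formation is computed from tube lengths against control (+) and control (-), measured after 20 h at 37 °C in M-199 with 20% FCS, 30 ng/ml b-FGF and 0.1 μM PMA. Samples were applied to HUVEC on collagen and covered by a second collagen layer (double-layer gel).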

The next assay deals with HUFEC. The assay is described as follows: Cell Migration Assay (CMA) Test, inhibitory rate with control (-) correction. In kind it is cell-based, human. As to conditions: Homo sapiens, 24 h, 125 μl of 0.32 mM sample solution in 4.0 ml medium, 80% or more = remarkable. A digest of the protocol: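 Confluent HUFEC monolayers were scratch-wounded, then cultured 24 h at 37 °C, 5% CO2 in M199 (2+) medium with compound added as 125 μl of a 0.32 mM solution (3.2% DMSO) per 4 ml. Giemsa-stained cells migrating into 1 mm×1 mm blocks counted; inhibition % calculated relative to control (+) and control (−) wells.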

For `COC(=O)C1=CO[C@@H](OC(=O)NCc2ccccc2F)[C@H]2[C@@H]1CC[C@@H]2C` [I-231], the figures for the inhibition at 320 µM (stock) (in assay [1]; in the assay with HUFEC) were 5.9% and 9.7%, respectively.

Take `CNC(=O)O[C@@H]1OC=C(C(=O)NCc2nc3ccccc3[nH]2)[C@H]2C[C@@H]3O[C@]3(C)[C@@H]12` [I-63]: the inhibition at 320 µM (stock) was found to be 41.7% in assay [1] and 14.2% in the assay with HUFEC.

Turning to `COC(=O)C1=COC[C@@H]2C(C)=CC[C@H]12` [I-302], the inhibition at 320 µM (stock) stood at 12.5% in assay [1] and 26.6% in the assay on HUFEC.

For `CNC(=O)O[C@@H]1OC=C(C(=O)OC)[C@H]2CC=C(C)[C@@H]12` [I-174], the inhibition at 320 µM (stock) is 67% in assay [1] and 12.9% in the assay with HUFEC.

With `CNC(=O)O[C@@H]1OC=C(C(=O)NC)[C@H]2CC=C(C)[C@@H]12` [I-310], the inhibition at 320 µM (stock) in assay [1] is 20.1%; with HUFEC it was 20.7%.

Take `COC(=O)C1=CO[C@@H](OC(=O)NCCOCCO)[C@H]2[C@@H]1CC[C@@H]2C` [I-202]: the inhibition at 320 µM (stock) is 26.2% in assay [1] and 6.5% with HUFEC.

Turning to `CCOC(=O)C1=CO[C@@H](OC(=O)NC)[C@@H]2C(C)=CC[C@H]12` [I-312], the inhibition at 320 µM (stock) in assay [1] turned out to be 41.8%; in the assay with HUFEC it was 34.9%.

With `CNC(=O)O[C@@H]1OC=C(C)[C@H]2CC[C@@H](C)[C@@H]12` [I-283], the values for the inhibition at 320 µM (stock) (in assay [1]; in the assay on HUFEC) were 11% and 9.1%, respectively.

In the case of `COC(=O)C1=CO[C@@H](OC(=O)NCc2cccc(F)c2)[C@H]2[C@@H]1CC[C@@H]2C` [I-232], the values for the inhibition at 320 µM (stock) (in assay [1]; in the assay with HUFEC) were 2.9% and 6.5%, respectively.

`COC(=O)C1=CO[C@@H](OC(=O)Nc2cccc(C#N)c2)[C@H]2[C@@H]1CC[C@@H]2C` [I-267]: the inhibition at 320 µM (stock) came out at 5.8% in assay [1] and 14.9% with HUFEC.

`COC(=O)C1=CO[C@@H](OC(=O)Nc2ccc(Cl)c(Cl)c2)[C@H]2[C@@H]1CC[C@@H]2C` [I-255]: the inhibition at 320 µM (stock) was determined as 6% in assay [1] and 6.5% in the assay on HUFEC.

As for `COC(=O)C1=CO[C@@H](OC(=O)NCc2ccccc2)[C@H]2[C@@H]1CC[C@@H]2C` [I-183], the inhibition at 320 µM (stock) worked out at 8.7% in assay [1] and 25.4% in the assay on HUFEC.

Turning to `CNC(=O)O[C@@H]1OC=C(C(=O)Nc2nccs2)[C@H]2C[C@@H]3O[C@]3(C)[C@@H]12` [I-62], the inhibition at 320 µM (stock) in assay [1] was found to be 28.4%; in the assay with HUFEC, 10.6%.

With `COC(=O)C1=CO[C@@H](OC(=O)NCC2CCCO2)[C@H]2[C@@H]1CC[C@@H]2C` (some centres unmarked) [I-181], the results for the inhibition at 320 µM (stock) (in assay [1]; with HUFEC) were 3.2% and 2.3%, respectively.

On to `COC(=O)C1=CO[C@@H](OC(=O)NCc2ccc(OC)cc2)[C@H]2[C@@H]1CC[C@@H]2C` [I-186], for which the inhibition at 320 µM (stock) stood at 5.5% in assay [1] and 6.3% with HUFEC.

Turning to `COC(=O)C1=CO[C@@H](OC(=O)N(C)CCN(C)C)[C@@H]2C(C)=CC[C@H]12` [I-86], the figures for the inhibition at 320 µM (stock) (in assay [1]; with HUFEC) were 5.2% and 9.9%, respectively.

For `COC(=O)C1=CO[C@@H](OC(=O)NCCc2ccc(O)cc2)[C@H]2[C@@H]1CC[C@@H]2C` [I-206], the results for the inhibition at 320 µM (stock) (in assay [1]; in the assay on HUFEC) were 14.2% and 33.6%, respectively.

As to `CNC(=O)O[C@@H]1OC=C(C(=O)O)[C@H]2CC[C@@H](C)[C@@H]12` [I-281], the results for the inhibition at 320 µM (stock) (in assay [1]; in the assay on HUFEC) were 31.1% and 27.9%, respectively.

Consider `COC(=O)C1=CO[C@@H](OC(=O)NCCc2ccccc2F)[C@H]2[C@@H]1CC[C@@H]2C` [I-185], for which the inhibition at 320 µM (stock) amounted to 4.9% in assay [1] and 15.6% with HUFEC.

With `COC(=O)C1=CO[C@@H](OC(=O)NCc2ccco2)[C@@H]2C(C)=CC[C@H]12` [I-110], the inhibition at 320 µM (stock) is 4.6% in assay [1] and 7.8% in the assay with HUFEC.

With `COC(=O)C1=CO[C@@H](OC(=O)N2CCOCC2)[C@@H]2C(C)=CC[C@H]12` [I-85], the inhibition at 320 µM (stock) in assay [1] stood at 15.6%; in the assay with HUFEC, 31%.

For the compound `COC(=O)C1=CO[C@@H](OC(=O)Nc2ccccc2)[C@@H]2C(C)=CC[C@H]12` [I-170], the inhibition at 320 µM (stock) in assay [1] worked out at 12.9%; with HUFEC it was 6.7%.

Consider `COC(=O)C1=CO[C@@H](OC(=O)NCCCl)[C@H]2[C@@H]1CC[C@@H]2C` [I-258], for which the inhibition at 320 µM (stock) in assay [1] is 3.8%; with HUFEC, 5.7%.

For the compound `COC(=O)C1=CO[C@@H](OC(=O)NCC(C)C)[C@H]2[C@@H]1CC[C@@H]2C` [I-190], the inhibition at 320 µM (stock) in assay [1] was 12.8%; with HUFEC, 21.8%.

As to `COC(=O)C1=CO[C@@H](OC(=O)NCc2ccccn2)[C@@H]2C(C)=CC[C@H]12` [I-75], the inhibition at 320 µM (stock) was found to be 4.3% in assay [1] and 11.7% in the assay with HUFEC.

Regarding `CNC(=O)O[C@@H]1OC=C(C(N)=O)[C@H]2C[C@@H]3O[C@]3(C)[C@@H]12` [I-61], the inhibition at 320 µM (stock) in assay [1] is 18.9%; in the assay on HUFEC it was 82.1%.

With `COC(=O)C1=CO[C@@H](OC(=O)NCc2ccc(OC(F)(F)F)cc2)[C@H]2[C@@H]1CC[C@@H]2C` [I-211], the inhibition at 320 µM (stock) in assay [1] was determined as 20.4%; in the assay with HUFEC, 32.1%.

For the compound `COC(=O)C1=COC[C@@H]2C(COC(=O)NCCCl)=CC[C@H]12` [I-296], the results for the inhibition at 320 µM (stock) (in assay [1]; in the assay with HUFEC) were 21.3% and 19.9%, respectively.

Take `COC(=O)C1=CO[C@@H](OC(=O)Nc2ccc(Cl)cc2)[C@@H]2C(C)=CC[C@H]12` [I-162]: the inhibition at 320 µM (stock) in assay [1] amounted to 7.5%; in the assay on HUFEC it was 8.9%.

For `COC(=O)C1=CO[C@@H](OC(=O)N(C)CC2OCCO2)[C@H]2[C@@H]1CC[C@@H]2C` [I-198], the inhibition at 320 µM (stock) was determined as 2.9% in assay [1] and 7.9% with HUFEC.

Consider `CONC(=O)O[C@@H]1OC=C(C(=O)OC)[C@H]2CC[C@H](C)[C@@H]12` [I-238], for which the inhibition at 320 µM (stock) in assay [1] is 17.8%; with HUFEC, 5.9%.

In the case of `COC(=O)C1=CO[C@@H](OC(=O)NCCCCCO)[C@H]2[C@@H]1CC[C@@H]2C` [I-209], the inhibition at 320 µM (stock) stood at 4.9% in assay [1] and 8.9% in the assay with HUFEC.

On to `COC(=O)C1=CO[C@@H](OC(=O)NCCc2ccccc2)[C@H]2[C@@H]1CC[C@@H]2C` [I-224], for which the values for the inhibition at 320 µM (stock) (in assay [1]; in the assay with HUFEC) were 10.5% and 15.6%, respectively.

In the case of `CNC(=O)O[C@@H]1OC=C(C(=O)N2C[C@@H](C)O[C@@H](C)C2)[C@H]2CC=C(C)[C@@H]12` [I-311], the inhibition at 320 µM (stock) was 10.7% in assay [1] and 7.6% with HUFEC.

As for `COC(=O)C1=CO[C@@H](OC(=O)Nc2ccccc2F)[C@@H]2C(C)=CC[C@H]12` [I-158], the values for the inhibition at 320 µM (stock) (in assay [1]; with HUFEC) were 8.5% and 7.3%, respectively.

With `COC(=O)C1=CO[C@@H](OC(=O)Nc2ccc(Br)cc2)[C@H]2[C@@H]1CC[C@@H]2C` [I-259], the inhibition at 320 µM (stock) in assay [1] was 2.9%; in the assay with HUFEC it was 5%.

`COC(=O)C1=CO[C@@H](OC(=O)N2CC=C(c3ccccc3)CC2)[C@H]2[C@@H]1CC[C@@H]2C` [I-242]: the inhibition at 320 µM (stock) in assay [1] was 4.8%; in the assay with HUFEC, 5.1%.

Take `COC(=O)C1=CO[C@@H](OC(=O)NCC2CCCCC2)[C@@H]2C(C)=CC[C@H]12` [I-88]: the inhibition at 320 µM (stock) in assay [1] was 4.7%; with HUFEC, 16.5%.

Turning to `COC(=O)C1=CO[C@@H](OC(=O)N(C)C)[C@H]2[C@@H]1CC[C@@H]2C` [I-239], the inhibition at 320 µM (stock) in assay [1] came out at 5.7%; in the assay on HUFEC, 7.8%.

Regarding `COC(=O)C1=CO[C@@H](OC(N)=O)[C@H]2[C@@H]1CC[C@@H]2C` [I-179], the inhibition at 320 µM (stock) in assay [1] worked out at 5.2%; in the assay on HUFEC it was 81.3%.

With `CCOC(=O)CNC(=O)C1=CO[C@@H](OC(=O)NC)[C@H]2[C@@H]1C[C@@H]1O[C@]21C` [I-65], the inhibition at 320 µM (stock) is 32.4% in assay [1] and 73.4% in the assay with HUFEC.

For `COC(=O)C1=CO[C@@H](OC(=O)NCCc2ccc(OC)cc2)[C@@H]2C(C)=CC[C@H]12` [I-98], the values for the inhibition at 320 µM (stock) (in assay [1]; in the assay with HUFEC) were 3.8% and 2.7%, respectively.

Take `COC(=O)C1=CO[C@@H](OC(=O)NCCN2CCCCC2)[C@@H]2C(C)=CC[C@H]12` [I-118]: the inhibition at 320 µM (stock) in assay [1] stood at 5.1%; in the assay with HUFEC it was 31.3%.

For the compound `CNC(=O)OCC1=CC[C@@H]2C(C(=O)OC)=COC[C@H]12` [I-295], the inhibition at 320 µM (stock) amounted to 7.9% in assay [1] and 5.6% with HUFEC.

For `COC(=O)C1=CO[C@@H](OC(=O)NCC2CCCCC2)[C@H]2[C@@H]1CC[C@@H]2C` [I-191], the inhibition at 320 µM (stock) in assay [1] was found to be 6%; in the assay with HUFEC it was 8%.

Regarding `COC(=O)C1=CO[C@@H](OC(=O)N2CCC(Cc3ccccc3)CC2)[C@@H]2C(C)=CC[C@H]12` [I-94], the values for the inhibition at 320 µM (stock) (in assay [1]; in the assay on HUFEC) were 6.2% and 3.9%, respectively.

Take `COC(=O)C1=CO[C@@H](OC(=O)Nc2cccc(C(F)(F)F)c2)[C@H]2[C@@H]1CC[C@@H]2C` [I-277]: the inhibition at 320 µM (stock) worked out at 84.4% in assay [1] and 12.7% with HUFEC.

As for `COC(=O)C1=CO[C@@H](OC(=O)NC(=O)c2ccccc2)[C@@H]2C(C)=CC[C@H]12` [I-153], the inhibition at 320 µM (stock) in assay [1] turned out to be 19%; in the assay with HUFEC, 22.3%.

For `CCC(CC)NC(=O)O[C@@H]1OC=C(C(=O)OC)[C@H]2CC[C@H](C)[C@@H]12` [I-207], the inhibition at 320 µM (stock) came to 4.4% in assay [1] and 5.5% in the assay on HUFEC.
